Results from patent US20120142723A1, “ACE2 ACTIVATOR COMPOUNDS AND METHODS OF USE THEREOF” (University of Florida Research Foundation, Inc., priority 2006, published 2012).
Entries after “also recorded” stand apart in the source; their conditions may differ. Read-outs that look alike come from different tables or passages of the source.

Assays:
[1] = molecular target: T1, human recombinant ACE2 (Homo sapiens, UniProt Q9BYF1); test: ACE2 activity assay with fluorogenic peptide VI; type: biochemical
T1 construct: purchased R&D Systems, Minneapolis, Minn; 933-ZN-10
Method: (§1) Activity of ACE and ACE2 was measured with a Spectra Max Gemini EM Florescence Reader (Molecular Devices). The enzyme removes the c-terminal dinitrophenyl moiety that quenches the inherent fluorescence of its 7-methoxycoumain group, resulting in an increase in fluorescence in the presence of enzyme activity. Fluorescence was measured with excitation and emission spectra of 328 nm and 392 nm, respectively. Reaction mixtures were prepared in 100 μl volumes and different concentrations of compound were tested against 10 μM substrate. 10 nM enzyme in 100 mM NaCl, 75 mM Iris, 0.5 μM ZnCl2, at pH 7.4. Samples were read every 15-20 seconds for at least 30 minutes immediately after the addition of fluorogenic peptide substrate at 37° C. Assays, including controls, were performed in the presence of 1% dimethyl sulfoxide (DMSO). Although higher concentrations of NaCl increase the activity of ACE2 and ACE (Vickers et al. 2002), a low concentration of salt (100 mM NaCl) was used in the assays to allow for enhancement of enzymatic activity to be detectable. That is, using 1 M NaCl which gives a maximal enhancing effect from the Cl ions might not allow the compounds to further enhance the activity of the enzyme. The lower salt concentration should give the compounds available room for activation.
Controls in the presence and absence of DMSO and without compound were carried out to evaluate the effect of DMSO on the activity of ACE and ACE2. Assays with no DMSO, 1% DMSO, and 2% DMSO were performed in identical conditions (i.e, pH, temperature, salt concentration, reaction mix volume and so on) to those of the experimental assays.
The experimental assays were corrected at each concentration since higher or lower concentrations of compounds affected the background signal in a concentration dependent manner.
Human recombinant ACE and ACE2 were obtained from R&D systems, Minneapolis, Minn., along with their respective fluorogenic substrates (ACE, catalog ID: 929-ZN-10; ACE2, 933-ZN-10; ACE substrate, fluorogenic peptide V, Mca RPPGFSAFK(Dnp)-OH, catalog ID: ES005; ACE2 substrate, fluorogenic peptide VI, Mca-YVADAPK(Dnp)-OH, ES007). Enzymatic activity was measured with a Spectra Max Gemini EM Fluorescence Reader (Molecular Devices) (Huentelman et al., Regul. Pept. 122:61-67 (2004)). Compounds were tested against 50 μM substrate. All assays were performed at least in triplicate in a reaction mixture containing 10 nM enzyme, 1 M NaCl, 75 mM Tris-HCl, 1% DMSO and 0.5 μM ZnCl2, at pH 7.4. Samples were read every 15-30 seconds for at least 30 minutes immediately after the addition of fluorogenic peptide substrates at 37° C. […] Enzyme activity was corrected for background.

[2] = molecular target: T2, Human recombinant ACE (Homo sapiens, UniProt P12821); test: ACE activity assay with fluorogenic peptide V; type: biochemical
T2 construct: purchased R&D Systems, Minneapolis, Minn; 929-ZN-10
Method: as §1
Controls in the presence and absence of DMSO and without compound were carried out to evaluate the effect of DMSO on the activity of ACE and ACE2. […]
Human recombinant ACE and ACE2 were obtained from R&D systems, Minneapolis, Minn., along with their respective fluorogenic substrates (ACE, catalog ID: 929-ZN-10; ACE2, 933-ZN-10; ACE substrate, fluorogenic peptide V, Mca RPPGFSAFK(Dnp)-OH, catalog ID: ES005; ACE2 substrate, fluorogenic peptide VI, Mca-YVADAPK(Dnp)-OH, ES007). Enzymatic activity was measured with a Spectra Max Gemini EM Fluorescence Reader (Molecular Devices) (Huentelman et al., Regul. Pept. 122:61-67 (2004)). […] Samples were read every 15-30 seconds for at least 30 minutes immediately after the addition of fluorogenic peptide substrates at 37° C. […]

[3] = Solubility as observed during assays and formulation; type: physicochemical
Description: Recombinant ACE and ACE2 were obtained in purified form from R&D Systems, Minneapolis, Minn. (catalog ID: 929-ZN-10 and 933-ZN-10, respectively). Substrates for ACE (fluorogenic peptide V, Mca-RPPGFSAFK(Dnp)-OH, catalog ID: ES005), and for ACE2 (fluorogenic peptide VI, Mca-YVADAPK(Dnp)-OH, catalog ID: ES007) were also obtained from R&D systems. Top scoring molecules were obtained from the National Cancer Institute (NCI) for functional testing. Dry compounds were resuspended in 100% DMSO to prepare 100 mM stock solutions, according to the amount of compound provided by the NCI and its molecular weight. Gentle heating to 60-80 C was carried out to assist their solubilization. Some compounds were further diluted to 50 mM stocks if clearly difficult to dissolve.
XNT was dissolved in saline at low pH (2-2.5) for in vivo studies. This compound was consistently prepared 24-48 hours before delivery in animals. XNT was prepared on a gram scale in six synthetic steps from 5-methoxysalicylic acid and m-chloroiodobenzene through modifications of a published procedure (Archer et al., J. Med. Chem. 26:1240-1246 (1983); Archer et al., J. Med. Chem. 31:254-260 (1988).

[4] = listed as resorcinolnaphthalein

T2 sequence (P12821 30-1261 limits assumed): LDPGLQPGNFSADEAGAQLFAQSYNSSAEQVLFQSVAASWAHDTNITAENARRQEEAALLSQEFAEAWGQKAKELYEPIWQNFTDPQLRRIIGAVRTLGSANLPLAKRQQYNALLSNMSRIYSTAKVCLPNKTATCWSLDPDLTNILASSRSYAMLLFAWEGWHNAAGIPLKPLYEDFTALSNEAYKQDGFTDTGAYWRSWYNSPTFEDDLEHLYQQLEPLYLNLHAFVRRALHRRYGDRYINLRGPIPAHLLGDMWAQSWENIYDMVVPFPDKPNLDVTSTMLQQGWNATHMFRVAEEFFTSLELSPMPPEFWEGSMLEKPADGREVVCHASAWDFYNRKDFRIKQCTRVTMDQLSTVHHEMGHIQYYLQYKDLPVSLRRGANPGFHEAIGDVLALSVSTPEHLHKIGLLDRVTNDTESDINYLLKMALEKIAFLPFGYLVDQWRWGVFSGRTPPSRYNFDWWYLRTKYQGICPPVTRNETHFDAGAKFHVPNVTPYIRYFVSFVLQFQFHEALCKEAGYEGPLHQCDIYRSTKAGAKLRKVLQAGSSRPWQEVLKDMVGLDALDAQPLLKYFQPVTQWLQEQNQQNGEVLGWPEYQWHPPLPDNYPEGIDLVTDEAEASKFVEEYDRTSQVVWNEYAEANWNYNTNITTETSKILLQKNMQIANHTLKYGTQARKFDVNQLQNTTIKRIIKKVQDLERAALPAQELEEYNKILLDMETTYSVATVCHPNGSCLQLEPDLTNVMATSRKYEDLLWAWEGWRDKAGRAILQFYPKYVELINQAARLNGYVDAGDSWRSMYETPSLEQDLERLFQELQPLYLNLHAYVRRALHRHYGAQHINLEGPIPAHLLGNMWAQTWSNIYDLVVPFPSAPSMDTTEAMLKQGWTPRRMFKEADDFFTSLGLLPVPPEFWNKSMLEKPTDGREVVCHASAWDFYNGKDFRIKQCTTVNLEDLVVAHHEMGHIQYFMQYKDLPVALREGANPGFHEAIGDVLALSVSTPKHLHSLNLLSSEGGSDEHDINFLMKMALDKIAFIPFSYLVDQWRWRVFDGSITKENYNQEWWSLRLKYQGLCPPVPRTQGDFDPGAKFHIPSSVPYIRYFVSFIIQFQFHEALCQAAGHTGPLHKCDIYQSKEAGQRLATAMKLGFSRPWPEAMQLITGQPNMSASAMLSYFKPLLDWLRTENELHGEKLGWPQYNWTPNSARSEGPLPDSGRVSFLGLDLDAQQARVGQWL
T1 sequence (Q9BYF1 18-740 limits assumed): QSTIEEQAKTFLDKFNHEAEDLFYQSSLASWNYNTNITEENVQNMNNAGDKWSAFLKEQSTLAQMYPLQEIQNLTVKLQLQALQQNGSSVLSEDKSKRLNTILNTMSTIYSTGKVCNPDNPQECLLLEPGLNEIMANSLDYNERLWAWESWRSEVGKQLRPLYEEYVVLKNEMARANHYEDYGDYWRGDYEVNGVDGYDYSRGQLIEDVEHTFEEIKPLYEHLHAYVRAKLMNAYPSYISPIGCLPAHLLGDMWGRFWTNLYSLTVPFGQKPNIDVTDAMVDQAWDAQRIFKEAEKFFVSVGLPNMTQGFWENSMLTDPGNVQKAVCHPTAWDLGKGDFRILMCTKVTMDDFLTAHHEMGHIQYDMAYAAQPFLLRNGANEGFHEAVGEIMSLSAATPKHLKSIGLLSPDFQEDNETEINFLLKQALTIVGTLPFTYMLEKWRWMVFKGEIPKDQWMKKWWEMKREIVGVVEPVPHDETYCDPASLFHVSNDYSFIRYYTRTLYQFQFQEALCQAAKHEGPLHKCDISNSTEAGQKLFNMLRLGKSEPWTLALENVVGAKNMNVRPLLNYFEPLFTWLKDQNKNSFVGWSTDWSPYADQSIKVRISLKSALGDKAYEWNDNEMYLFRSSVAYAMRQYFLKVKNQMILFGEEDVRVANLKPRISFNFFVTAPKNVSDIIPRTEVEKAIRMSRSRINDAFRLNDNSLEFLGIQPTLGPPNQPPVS

ACE2 activity, dose response [1]: did not show the same dose response
ACE2 activity ([1]; 100 μM compound): ACE2-specific enhancement
increase of ACE2 activity ([1]; 100 μM compound, FIG. 3, 40 minute time course): about 2 fold
ACE2 activity ([1]; 500 μM compound): returned down to control level
ACE2 activity ([1]; concentrations higher than 100 μM): inhibited ACE2
enhancement of ACE2 enzymatic activity ([1]; confirmation assay, 1% DMSO): 2 fold
increase of ACE2 activity ([1]; initial functional screening): about 2 fold
ACE2 activity, dose response [1, 4]: dose-dependent manner
ACE activity [2]: do not enhance ACE activity
ACE activity [2, 4]: did not significantly affect
solubility [3]: significantly more insoluble
SMILES: O=C1OC2(c3ccc(O)cc3Oc3cc(O)ccc32)c2cccc3cccc1c23 [Compound 6, resorcinalnaphthalein]
ACE2 activity ([1]; 20, 50 and 100 μM compound): activated ACE2 identically; also recorded: identical curves
ACE activity ([2]; 50 or 100 μM compound): did not activate; also recorded: not enhanced
